PubChem BioAssay AID330 (DTP/NCI, 2004)
Several values for one entry are separate records, joined by “and”; a condition that tells them apart may be missing. Equal entries are not always repeated. Toxic doses and inconclusive results are not listed. Rule for the calls: active = survival T/C of 150% or more; inactive = T/C below 125% in these data.

Test system: P388 leukemia ip, CD2F1 mice, survival T/C
Assay: NCI In Vivo Anticancer Drug Screen. Data for tumor model P388 Leukemia (intraperitoneal) in CD2F1 (CDF1) mice
Conditions: endpoint: median survival time, higher = longer survival
Summary of the method: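 Mice carrying the transplanted tumor received test compound or vehicle. Survival was recorded in each group, and the value is the treated-group measurement divided by that of the vehicle-treated control group.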

[1] = dose: 50.0 mg/kg/injection, schedule: Q01DX005 (ip), vehicle: Klucel (hydroxypropylcellulose) (HPC)
[2] = dose: 100.0 mg/kg/injection, schedule: Q01DX005 (ip), vehicle: Klucel (hydroxypropylcellulose) (HPC)
[3] = dose: 200.0 mg/kg/injection, schedule: Q01DX005 (ip), vehicle: Klucel (hydroxypropylcellulose) (HPC)
[4] = dose: 100.0 mg/kg/injection, schedule: Q04DX003 (ip), vehicle: saline with Tween-80
[5] = dose: 200.0 mg/kg/injection, schedule: Q04DX003 (ip), vehicle: saline with Tween-80
[6] = dose: 50.0 mg/kg/injection, schedule: Q01DX005 (ip), vehicle: saline with Tween-80
[7] = dose: 100.0 mg/kg/injection, schedule: Q01DX005 (ip), vehicle: saline with Tween-80
[8] = dose: 200.0 mg/kg/injection, schedule: Q01DX005 (ip), vehicle: saline with Tween-80
[9] = dose: 50.0 mg/kg/injection, schedule: Q01DX009 (ip), vehicle: Klucel (hydroxypropylcellulose) (HPC)
[10] = dose: 100.0 mg/kg/injection, schedule: Q01DX009 (ip), vehicle: Klucel (hydroxypropylcellulose) (HPC)
[11] = dose: 25.0 mg/kg/injection, schedule: Q01DX009 (ip), vehicle: saline
[12] = dose: 50.0 mg/kg/injection, schedule: Q01DX009 (ip), vehicle: saline with Tween-80
[13] = dose: 50.0 mg/kg/injection, schedule: Q01DX009 (ip), vehicle: saline
[14] = dose: 100.0 mg/kg/injection, schedule: Q01DX009 (ip), vehicle: saline with Tween-80
[15] = dose: 100.0 mg/kg/injection, schedule: Q01DX009 (ip), vehicle: saline
[16] = dose: 200.0 mg/kg/injection, schedule: Q01DX009 (ip), vehicle: saline with Tween-80
[17] = dose: 200.0 mg/kg/injection, schedule: Q01DX009 (ip), vehicle: saline

Measured: T/C

COC1=CC(=O)C([C@@H]2COc3cc(O)ccc3C2)=CC1=O
inactive: dose: 3.75 mg/kg/injection, schedule: Q01DX009 (ip), vehicle: Klucel (hydroxypropylcellulose) (HPC) 95 % of control | dose: 7.5 mg/kg/injection, schedule: Q01DX009 (ip), vehicle: Klucel (hydroxypropylcellulose) (HPC) 99 % of control | dose: 15.0 mg/kg/injection, schedule: Q01DX009 (ip), vehicle: Klucel (hydroxypropylcellulose) (HPC) 95 % of control | dose: 30.0 mg/kg/injection, schedule: Q01DX009 (ip), vehicle: Klucel (hydroxypropylcellulose) (HPC) 98 % of control

Cc1cc(-c2ccccc2)nc2nc3ccccc3n12
inactive: dose: 60.0 mg/kg/injection, schedule: Q01DX005 (ip), vehicle: saline with Tween-80 105 % of control | dose: 120.0 mg/kg/injection, schedule: Q01DX005 (ip), vehicle: saline with Tween-80 103 % of control | dose: 240.0 mg/kg/injection, schedule: Q01DX005 (ip), vehicle: saline with Tween-80 103 % of control

COc1cccc2c1C(=O)c1ccccc1-2
inactive: [1] 102 % of control | [2] 102 % of control | [3] 91 % of control

CC(N)C(=O)NC(C)C(=O)NC(C)C(=O)O (stereo not given)
inactive: [1] 104 % of control | [2] 106 % of control | [3] 101 % of control

C=CCCCCCCCCC(=O)NN1CCOCC1
inactive: [4] 95 % of control | [5] 100 % of control | dose: 400.0 mg/kg/injection, schedule: Q04DX003 (ip), vehicle: saline with Tween-80 86 % of control

NCCN.O=S(=O)([O-])[O-].[Cu+2].[OH3+].[OH3+]
inactive: dose: 6.25 mg/kg/injection, schedule: Q04DX002 (ip), vehicle: saline 100 % of control | dose: 12.5 mg/kg/injection, schedule: Q04DX002 (ip), vehicle: saline 100 % of control | dose: 25.0 mg/kg/injection, schedule: Q04DX002 (ip), vehicle: saline 100 % of control

CCC(C)C1(O)OC2CC3(C)OC(=CC3=O)/C(C)=C\C3OC(=O)C1(C)C32 (stereo not given)
inactive: dose: 10.0 mg/kg/injection, schedule: Q01DX005 (ip), vehicle: saline + alcohol 96 % of control | dose: 20.0 mg/kg/injection, schedule: Q01DX005 (ip), vehicle: saline + alcohol 100 % of control | dose: 40.0 mg/kg/injection, schedule: Q01DX005 (ip), vehicle: saline + alcohol 105 % of control | dose: 80.0 mg/kg/injection, schedule: Q01DX005 (ip), vehicle: saline + alcohol 99 % of control

NC(N)=NC(N)=Nc1ccc2ccc3cccc4ccc1c2c34
inactive: [4] 106 % of control | [5] 111 % of control

O=S1(=O)Cc2c(Br)c(Br)c(Br)c(Br)c2C1
inactive: dose: 12.5 mg/kg/injection, schedule: Q01DX009 (ip), vehicle: saline sonified 109 % of control | dose: 25.0 mg/kg/injection, schedule: Q01DX009 (ip), vehicle: saline sonified 109 % of control | dose: 50.0 mg/kg/injection, schedule: Q01DX009 (ip), vehicle: saline sonified 109 % of control

CCN(Cc1cccc(S(=O)(=O)O)c1)c1ccc(C(=C2C=CC(=[N+](CC)Cc3cccc(S(=O)(=O)O)c3)C=C2)c2ccc(O)c(S(=O)(=O)O)c2)cc1
inactive: [6] 97 % of control | [7] 99 % of control | [8] 100 % of control

CC(=O)CC(C)=O.CC(=O)CC(C)=O.[Cl][Sn][c]1ccccc1
inactive: dose: 25.0 mg/kg/injection, schedule: Q01DX005 (ip), vehicle: saline 109 % of control and 116 % of control | dose: 50.0 mg/kg/injection, schedule: Q01DX005 (ip), vehicle: saline 110 % of control and 122 % of control | dose: 100.0 mg/kg/injection, schedule: Q01DX005 (ip), vehicle: saline 109 % of control and 115 % of control | dose: 200.0 mg/kg/injection, schedule: Q01DX005 (ip), vehicle: saline 107 % of control and 111 % of control and 113 % of control

O=C1OCc2c1cc1cc3c(cc1c2-c1ccc2c(c1)OCO2)OCO3
inactive: dose: 12.5 mg/kg/injection, schedule: Q01DX009 (ip), vehicle: Klucel (hydroxypropylcellulose) (HPC) 91 % of control | dose: 25.0 mg/kg/injection, schedule: Q01DX009 (ip), vehicle: Klucel (hydroxypropylcellulose) (HPC) 100 % of control | [9] 100 % of control | [10] 98 % of control

CC(=O)OCN(C)N=Nc1ccc(C(C)=O)cc1
inactive: dose: 60.0 mg/kg/injection, schedule: Q01DX005 (ip), vehicle: Klucel (hydroxypropylcellulose) (HPC) 106 % of control and 114 % of control and 118 % of control | dose: 120.0 mg/kg/injection, schedule: Q01DX005 (ip), vehicle: Klucel (hydroxypropylcellulose) (HPC) 100 % of control and 109 % of control and 124 % of control | dose: 480.0 mg/kg/injection, schedule: Q01DX005 (ip), vehicle: Klucel (hydroxypropylcellulose) (HPC) 108 % of control

COc1cc(C/C=C/c2ccccc2)c(OC)cc1O
inactive: dose: 2.5 mg/kg/injection, schedule: Q01DX009 (ip), vehicle: saline with Tween-80 91 % of control | dose: 5.0 mg/kg/injection, schedule: Q01DX009 (ip), vehicle: saline with Tween-80 102 % of control | dose: 10.0 mg/kg/injection, schedule: Q01DX009 (ip), vehicle: saline with Tween-80 101 % of control

CN(C)CC1(C)C(=O)N(C)C(=O)N(C2CCCCC2)C1=O (stereo not given)
inactive: dose: 25.0 mg/kg/injection, schedule: Q01DX009 (ip), vehicle: saline with Tween-80 100 % of control | [11] 100 % of control | [12] 107 % of control | [13] 104 % of control and 105 % of control | [14] 107 % of control | [15] 113 % of control | [16] 117 % of control | [17] 122 % of control

COc1ccc2nc3cc(Cl)ccc3c(Nc3ccccc3NC(C)=O)c2n1
inactive: dose: 12.5 mg/kg/injection, schedule: Q01DX009 (ip), vehicle: water 116 % of control | dose: 25.0 mg/kg/injection, schedule: Q01DX009 (ip), vehicle: water 116 % of control | dose: 50.0 mg/kg/injection, schedule: Q01DX009 (ip), vehicle: water 119 % of control | dose: 100.0 mg/kg/injection, schedule: Q01DX009 (ip), vehicle: water 114 % of control | dose: 200.0 mg/kg/injection, schedule: Q01DX009 (ip), vehicle: water 115 % of control

CC(C)(C)N=C(c1ccccc1)N1CCCCC1
inactive: [12] 100 % of control | [14] 90 % of control

NC(=O)c1cc([N+](=O)[O-])cnc1Sc1ncn[nH]1
inactive: [9] 98 % of control | [10] 107 % of control

Fc1ccc(N=Cc2cccs2)cc1
inactive: [9] 110 % of control | [10] 107 % of control | dose: 200.0 mg/kg/injection, schedule: Q01DX009 (ip), vehicle: Klucel (hydroxypropylcellulose) (HPC) 110 % of control

OCc1ncccc1O
inactive: [11] 99 % of control and 109 % of control | [13] 108 % of control and 100 % of control and 106 % of control | [15] 90 % of control and 102 % of control and 104 % of control | [17] 110 % of control and 111 % of control and 97 % of control

Nc1c(Br)cc(Br)c2c1C(=O)c1ccccc1-2
inactive: [6] 98 % of control | [7] 91 % of control | [8] 96 % of control

N#Cc1cccc(C(N)=O)c1C(N)=O
inactive: [6] 104 % of control | [7] 98 % of control | [8] 95 % of control

CCOC(=O)c1ccc(N(CC)CC)cc1
inactive: [14] 100 % of control | [16] 104 % of control | dose: 400.0 mg/kg/injection, schedule: Q01DX009 (ip), vehicle: saline with Tween-80 100 % of control

CCOC(=O)C(=C/C=C/N(C)C)C(=O)OCC
inactive: dose: 100.0 mg/kg/injection, schedule: Q01DX001 (ip), vehicle: saline 100 % of control | dose: 200.0 mg/kg/injection, schedule: Q01DX001 (ip), vehicle: saline 104 % of control
